Measured values reported in US20130157858A1, “METHODS AND SYSTEMS USEFUL FOR C[…] WATERMILFOIL” (priority 2011, published 2013).

Tests used:
[1] = test system: hybrid milfoil population; conditions: hybrid milfoil population (B), 6 weeks following applications of various rates, FIG. 2; cited from earlier work
[2] = test system: auxin herbicide sensitive Eurasian milfoil biotype; conditions: Eurasian milfoil biotype (A), 6 weeks following applications of various rates, FIG. 2; cited from earlier work
[3] = test system: tolerant hybrid milfoil lineage from an Upper Midwest US lake; test: 14-day laboratory apical tissue assay, fluridone herbicide response (beta-carotene); assay type: in vivo, hybrid (Northern×Eurasian) watermilfoil; conditions: 14-day apical tissue assay, various rates of fluridone, compared with the susceptible reference Eurasian milfoil lineage (EWM), n=4, FIG. 3
Description: FIG. 3 depicts fluridone herbicide response of a tolerant hybrid milfoil lineage from an Upper Midwest US lake compared to response of a susceptible reference Eurasian milfoil lineage (EWM) in a 14-day laboratory apical tissue assay. […] Error bars are +1 standard deviation (n=4).

Molecule | response in aboveground biomass (sensitivity/tolerance) [1] | response in aboveground biomass (sensitivity/tolerance) [2] | beta-carotene reduction [3]
O=C(O)COc1ccc(Cl)cc1Cl [2,4-d, 2,4-dichlorophenoxyacetic acid] | displaying auxin tolerance | sensitive | 
fluridone |  |  | less beta-carotene reduction for the tolerant hybrid lineage versus the reference Eurasian lineage
O=C(O)COc1nc(Cl)c(Cl)cc1Cl [triclopyr] | displaying auxin tolerance | sensitive | 
